Earlier results, collected in patent US6376534B1, “Compounds useful in pain management” (Astrazeneca Canada Inc., priority 1998, dated 2002).

How the values were obtained:
[1] = background statement
δ receptor = δ receptor (Homo sapiens, UniProt P41143); conditions: background statement
δ receptor, sequence (P41143 whole entry): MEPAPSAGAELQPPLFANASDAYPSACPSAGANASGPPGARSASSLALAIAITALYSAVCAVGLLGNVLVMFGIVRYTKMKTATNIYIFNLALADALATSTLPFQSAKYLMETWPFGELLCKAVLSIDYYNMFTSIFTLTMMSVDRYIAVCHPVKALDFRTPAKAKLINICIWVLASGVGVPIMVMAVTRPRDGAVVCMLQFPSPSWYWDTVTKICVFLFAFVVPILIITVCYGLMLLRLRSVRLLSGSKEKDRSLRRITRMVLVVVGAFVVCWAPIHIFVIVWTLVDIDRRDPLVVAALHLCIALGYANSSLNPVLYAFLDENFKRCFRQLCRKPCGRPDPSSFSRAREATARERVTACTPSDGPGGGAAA

Oc1ccc2c3c1O[C@H]1c4[nH]c5ccccc5c4C[C@@]4(O)[C@@H](C2)N(CC2CC2)CC[C@]314 [naltrindole]
analgesic activity [1]: no analgesic activity
selectivity for the δ receptor vs. μ receptor binding (δ receptor): < 10 fold
